This is an account of results in ChEMBL document CHEMBL4411344, “Synthesis and biological evaluation of new long-chain squaramides as anti-chagasic agents in the BALB/c mouse model” (Bioorg Med Chem, 2019).

Series [1] concerns Trypanosoma cruzi. Description: Trypanocidal activity against Trypanosoma cruzi MHOM/Pe/2011/Arequipa DTU 5 amastigotes infected in African green monkey Vero cells assessed as reduction in number of amastigotes per infected cells at log -0.41 to 1.7 after 72 hrs by Giemsa-staining based assay. It is filed as functional, organism-based.
Series [2] concerns Trypanosoma cruzi. Description: Antitrypanosomal activity against Trypanosoma cruzi MHOM/Pe/2011/Arequipa DTU 5 trypomastigotes infected in Balb/c mouse assessed as parasite-free muscle at 20 mg/kg, po pretreated once daily for 5 consecutive days starting from day 75 post infection followed by cyclophosphamide-induced immunosuppression on day 100 post infection measured on day 127 post infection by PCR method. The format is functional.

Series [3] is described as follows: Toxicity in Balb/c mouse assessed as reduction in body mass at 20 mg/kg, po once daily for 5 consecutive days starting from day 75 post infection relative to control. The conditions noted are these: in vivo. Set-up: scale not given: the % may be the effect or the level left. It is filed as organism-based.
Series [4] deals with Trypanosoma cruzi. Briefly: Antitrypanosomal activity against Trypanosoma cruzi MHOM/Pe/2011/Arequipa DTU 5 epimastigotes assessed as reduction in DNA and RNA levels at IC25 after 72 hrs by acridine orange staining based flow cytometry relative to control. It is filed as functional. For orientation: A flow cytometer gives signals particle by particle.
The test system of series [5] is Trypanosoma cruzi. Briefly: Antitrypanosomal activity against Trypanosoma cruzi MHOM/Pe/2011/Arequipa DTU 5 trypomastigotes infected in Balb/c mouse assessed as parasite-free brain at 20 mg/kg, po pretreated once daily for 5 consecutive days starting from day 75 post infection followed by cyclophosphamide-induced immunosuppression on day 100 post infection measured on day 127 post infection by PCR method. The format is functional.

Series [6] concerns Trypanosoma cruzi. Briefly: Antitrypanosomal activity against Trypanosoma cruzi MHOM/Pe/2011/Arequipa DTU 5 trypomastigotes infected in Balb/c mouse assessed as reduction in Ig-G level in serum at 20 mg/kg, po once daily for 5 consecutive days starting from day 10 post infection measured on day 100 post infection by ELISA. The format is functional, organism-based. On the technique in general: ELISA stands for enzyme-linked immunosorbent assay.

Series [7] relates to Trypanosoma cruzi. Description: Antitrypanosomal activity against Trypanosoma cruzi MHOM/Pe/2011/Arequipa DTU 5 trypomastigotes infected in Balb/c mouse assessed as parasite-free spleen at 20 mg/kg, po pretreated once daily for 5 consecutive days starting from day 75 post infection followed by cyclophosphamide-induced immunosuppression on day 100 post infection measured on day 127 post infection by PCR method. It is filed as functional.

In series [8] the test system is Trypanosoma cruzi. Description: Antitrypanosomal activity against Trypanosoma cruzi MHOM/Pe/2011/Arequipa DTU 5 trypomastigotes infected in Balb/c mouse assessed as parasite-free brain at 20 mg/kg, po pretreated once daily for 5 consecutive days starting from day 10 post infection followed by cyclophosphamide-induced immunosuppression on day 100 post infection measured on day 127 post infection by PCR method. It is filed as functional.

A short description of series [9]: Hepatotoxicity in Balb/c mouse infected with Trypanosoma cruzi MHOM/Pe/2011/Arequipa DTU 5 trypomastigotes assessed as increase in ratio of serum ALT to GPT level at 20 mg/kg, po once daily for 5 consecutive days starting from day 75 post infection measured on day 81 post infection relative to control. The format is toxicity, organism-based. The conditions noted are these: in vivo.

The test system of series [10] is Trypanosoma cruzi. Briefly: Antitrypanosomal activity against Trypanosoma cruzi MHOM/Pe/2011/Arequipa DTU 5 trypomastigotes infected in Balb/c mouse assessed as parasite-free stomach at 20 mg/kg, po pretreated once daily for 5 consecutive days starting from day 75 post infection followed by cyclophosphamide-induced immunosuppression on day 100 post infection measured on day 127 post infection by PCR method. It is filed as functional.

Series [11] has as its system Trypanosoma cruzi. Description: Antitrypanosomal activity against Trypanosoma cruzi MHOM/Pe/2011/Arequipa DTU 5 trypomastigotes infected in Balb/c mouse assessed as reduction in parasitaemia reactivation at 20 mg/kg, po pretreated once daily for 5 consecutive days starting from day 10 post infection followed by cyclophosphamide-induced immunosuppression on day 100 post infection measured within 1 week post immunosuppression by Neubauer chamber method. The format is functional. Set-up: scale not given: the % may be the effect or the level left.

The subject of series [12] is Trypanosoma cruzi. Briefly: Antitrypanosomal activity against Trypanosoma cruzi MHOM/Pe/2011/Arequipa DTU 5 epimastigotes assessed as change in mitochondrial membrane potential at IC25 after 72 hrs by Rho123 staining based flow cytometry relative to control. The format is functional.
Series [13] can be described thus: Toxicity in Balb/c mouse assessed as reduction in body mass at 20 mg/kg, po once daily for 5 consecutive days starting from day 10 post infection relative to control. It is filed as organism-based. Also noted: scale not given: the % may be the effect or the level left. As to conditions: in vivo.
The nature of series [14]: Hepatotoxicity in Balb/c mouse infected with Trypanosoma cruzi MHOM/Pe/2011/Arequipa DTU 5 trypomastigotes assessed as change in ratio of serum ALT to GPT level at 20 mg/kg, po once daily for 5 consecutive days starting from day 10 post infection measured on day 127 post infection by biochemical analysis (reference value: 49 U/L). The format is toxicity, organism-based. As to conditions: in vivo.

The nature of series [15]: Hepatotoxicity in Balb/c mouse infected with Trypanosoma cruzi MHOM/Pe/2011/Arequipa DTU 5 trypomastigotes assessed as increase in ratio of serum AST to GOT level at 20 mg/kg, po once daily for 5 consecutive days starting from day 10 post infection measured on day 16 post infection relative to control. The conditions noted are these: in vivo. The format is toxicity, organism-based.

Series [16] relates to Trypanosoma cruzi. Briefly: Antitrypanosomal activity against Trypanosoma cruzi MHOM/Pe/2011/Arequipa DTU 5 trypomastigotes infected in Balb/c mouse assessed as reduction in Ig-G level in serum at 20 mg/kg, po pretreated once daily for 5 consecutive days starting from day 10 post infection followed by cyclophosphamide-induced immunosuppression on day 100 post infection measured on day 127 post infection by ELISA. The format is functional, organism-based.

Series [17] deals with Trypanosoma cruzi. Description: Antitrypanosomal activity against Trypanosoma cruzi MHOM/Pe/2011/Arequipa DTU 5 trypomastigotes infected in Balb/c mouse assessed as parasite-free bone marrow at 20 mg/kg, po pretreated once daily for 5 consecutive days starting from day 75 post infection followed by cyclophosphamide-induced immunosuppression on day 100 post infection measured on day 127 post infection by PCR method. The format is functional.

The test system of series [18] is Trypanosoma cruzi. Description: Antitrypanosomal activity against Trypanosoma cruzi MHOM/Pe/2011/Arequipa DTU 5 trypomastigotes infected in Balb/c mouse assessed as reduction in Ig-G level in serum at 20 mg/kg, po once daily for 5 consecutive days starting from day 10 post infection measured on day 16 post infection by ELISA. It is filed as functional, organism-based.

In series [19] the test system is Trypanosoma cruzi. Description: Antitrypanosomal activity against Trypanosoma cruzi MHOM/Pe/2011/Arequipa DTU 5 trypomastigotes infected in Balb/c mouse assessed as parasite-free heart at 20 mg/kg, po pretreated once daily for 5 consecutive days starting from day 10 post infection followed by cyclophosphamide-induced immunosuppression on day 100 post infection measured on day 127 post infection by PCR method. The format is functional.

Series [20] in a line: Nephrotoxicity in Balb/c mouse infected with Trypanosoma cruzi MHOM/Pe/2011/Arequipa DTU 5 trypomastigotes assessed as decrease in serum urea level at 20 mg/kg, po once daily for 5 consecutive days starting from day 10 post infection measured on day 16 post infection relative to control. The format is toxicity, organism-based. As to conditions: in vivo.
Series [21] deals with Trypanosoma cruzi. Description: Antitrypanosomal activity against Trypanosoma cruzi MHOM/Pe/2011/Arequipa DTU 5 trypomastigotes infected in Balb/c mouse assessed as parasite-free bone marrow at 20 mg/kg, po pretreated once daily for 5 consecutive days starting from day 10 post infection followed by cyclophosphamide-induced immunosuppression on day 100 post infection measured on day 127 post infection by PCR method. It is filed as functional.

For series [22], the system named is Trypanosoma cruzi. Description: Antitrypanosomal activity against Trypanosoma cruzi MHOM/Pe/2011/Arequipa DTU 5 trypomastigotes infected in Balb/c mouse assessed as parasite-free spleen at 20 mg/kg, po pretreated once daily for 5 consecutive days starting from day 10 post infection followed by cyclophosphamide-induced immunosuppression on day 100 post infection measured on day 127 post infection by PCR method. The format is functional.

Each structure is given as a SMILES string. Active and inactive are the calls of the source. The calls are words filed in the database; no cut-off is given here.

Turning to `O=C(Cn1ccnc1[N+](=O)[O-])NCc1ccccc1` [BENZNIDAZOLE], the result in the series with Trypanosoma cruzi [1], in the series with Trypanosoma cruzi [6], with Trypanosoma cruzi [16] and in the series on Trypanosoma cruzi [18] was Active. Moreover, the Activity is 55% with Trypanosoma cruzi [2]; > 10% in series [3]; 55% in the series with Trypanosoma cruzi [5]; 55% in the series with Trypanosoma cruzi [7]; 33% in the series on Trypanosoma cruzi [8]; 20 to 30 U/L in series [9]. Besides, the Activity with Trypanosoma cruzi [10] is reported as 55%; in the series with Trypanosoma cruzi [11], 75%; with Trypanosoma cruzi [12] it was -35.38%; in series [13] it was > 10%; in series [14], 49 U/L; in series [15], > 40 U/L. In addition, the Activity in the series with Trypanosoma cruzi [17] was 55%; with Trypanosoma cruzi [19], 33%; in series [20], 20 to 30 mg/dL; in the series on Trypanosoma cruzi [21] it was 33%; in the series on Trypanosoma cruzi [22] it was 33%. Further, the “inhibition (INH)” value in the series with Trypanosoma cruzi [4] stood at 22.38%.
Consider `CCCCCCCCCCCCCCCCNc1c(N(C)CCCN(C)C)c(=O)c1=O`, for which the result in the series with Trypanosoma cruzi [1], in the series with Trypanosoma cruzi [6], in the series with Trypanosoma cruzi [16] and in the series with Trypanosoma cruzi [18] was Active. The Activity in the series with Trypanosoma cruzi [2] is 78%; in series [3], > 10%; with Trypanosoma cruzi [5] it was 78%; with Trypanosoma cruzi [7], 78%; with Trypanosoma cruzi [8] it was 67%; in series [9], 20 to 30 U/L. For the same compound, the Activity with Trypanosoma cruzi [10] is 78%; with Trypanosoma cruzi [11], 26%; in the series with Trypanosoma cruzi [12], -80.61%; in series [13], > 10%; in series [14], 49 U/L; in [15] it was 10 to 20 U/L. For the same compound, the Activity was 78% in the series on Trypanosoma cruzi [17]; 67% with Trypanosoma cruzi [19]; 10 to 20 mg/dL in series [20]; 67% with Trypanosoma cruzi [21]; 67% in the series with Trypanosoma cruzi [22]. Moreover, the “inhibition (INH)” value with Trypanosoma cruzi [4] came out at 49.05%.
With `CCCCCCNc1c(N(C)CCCN(C)C)c(=O)c1=O`, in the series on Trypanosoma cruzi [1], the outcome was Active. For the same compound, the result with Trypanosoma cruzi [2], with Trypanosoma cruzi [5], with Trypanosoma cruzi [6], with Trypanosoma cruzi [7], with Trypanosoma cruzi [8] and in the series with Trypanosoma cruzi [10] was inactive. For the same compound, the result with Trypanosoma cruzi [11], with Trypanosoma cruzi [16], with Trypanosoma cruzi [17], in the series on Trypanosoma cruzi [18], with Trypanosoma cruzi [19] and in the series on Trypanosoma cruzi [21] was inactive. The outcome in the series with Trypanosoma cruzi [22] was inactive. For the same compound, the Activity in series [3] was > 10%; in series [9] it was 20 to 30 U/L; with Trypanosoma cruzi [12], 4.69%; in [13] it was > 10%; in series [14] it was 49 U/L; in [15], 30 to 40 U/L. In addition, in [20], the Activity lay in the range of 10 to 20 mg/dL. Further, the “inhibition (INH)” value in the series on Trypanosoma cruzi [4] is listed as 31.13%.
